The target of series [1] is Neuronal acetylcholine receptor subunit alpha-7 (Rattus norvegicus, UniProt Q05941). As to the kind of experiment: Displacement of [3H]methyllylcaconitine from alpha7 nAChR in rat brain. Type of series: tissue-based. For orientation: Loss of bound radioactivity is the signal in a displacement assay; it reports binding, not function.
For series [2], the target named is Neuronal acetylcholine receptor subunit alpha-7 (Rattus norvegicus) (UniProt Q05941). As to the kind of experiment: Ratio of tilorone Ki to compound Ki for alpha7 nAChR in rat brain. Type of series: tissue-based.
Chain of Neuronal acetylcholine receptor subunit alpha-7 (Rattus norvegicus) (Q05941 whole entry): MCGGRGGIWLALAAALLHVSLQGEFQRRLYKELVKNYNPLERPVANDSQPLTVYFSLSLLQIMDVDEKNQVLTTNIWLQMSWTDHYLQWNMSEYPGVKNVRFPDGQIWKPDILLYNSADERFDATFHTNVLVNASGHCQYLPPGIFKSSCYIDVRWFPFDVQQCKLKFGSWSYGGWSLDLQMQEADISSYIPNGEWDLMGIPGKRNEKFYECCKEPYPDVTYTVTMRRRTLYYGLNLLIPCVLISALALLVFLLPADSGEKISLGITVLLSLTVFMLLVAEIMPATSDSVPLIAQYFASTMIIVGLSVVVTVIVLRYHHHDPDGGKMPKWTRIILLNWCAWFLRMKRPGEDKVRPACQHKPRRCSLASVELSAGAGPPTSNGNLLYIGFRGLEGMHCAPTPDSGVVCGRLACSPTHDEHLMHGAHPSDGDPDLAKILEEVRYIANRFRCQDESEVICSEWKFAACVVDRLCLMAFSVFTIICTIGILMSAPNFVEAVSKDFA
The nature of series [3]: Ratio of drug level in brain to plasma in rat at 3 umol/kg, ip at 30 mins. Format: ADME, organism-based. The following applies: read-out: BPR.
The nature of series [4]: Binding affinity to 5HT3.
Series [5] has as its target Voltage-gated inwardly rectifying potassium channel KCNH2 (Homo sapiens, UniProt Q12809). As to the kind of experiment: Displacement of [3H]dofetilide from human ERG expressed in HEK293 cells.
Series [6] concerns the target T1, Neuronal acetylcholine receptor; alpha4/beta2 (Homo sapiens, UniProt P17787+P43681). As to the kind of experiment: Agonist activity at human recombinant alpha4beta2 nAChR in HEK293 cells by FLIPR assay. Type of series: functional, cell-based.
Series [7] is described as follows: Plasma concentration in rat at 3 umol/kg, ip at 30 mins. Type of series: ADME, organism-based.
The target of series [8] is T2, Neuronal acetylcholine receptor; alpha3/beta4 (Homo sapiens, UniProt P30926+P32297). Description: Agonist activity at human recombinant alpha3beta4 nAChR in HEK293 cells by FLIPR assay. Type of series: functional, cell-based.
T2 sequence (P30926 whole entry): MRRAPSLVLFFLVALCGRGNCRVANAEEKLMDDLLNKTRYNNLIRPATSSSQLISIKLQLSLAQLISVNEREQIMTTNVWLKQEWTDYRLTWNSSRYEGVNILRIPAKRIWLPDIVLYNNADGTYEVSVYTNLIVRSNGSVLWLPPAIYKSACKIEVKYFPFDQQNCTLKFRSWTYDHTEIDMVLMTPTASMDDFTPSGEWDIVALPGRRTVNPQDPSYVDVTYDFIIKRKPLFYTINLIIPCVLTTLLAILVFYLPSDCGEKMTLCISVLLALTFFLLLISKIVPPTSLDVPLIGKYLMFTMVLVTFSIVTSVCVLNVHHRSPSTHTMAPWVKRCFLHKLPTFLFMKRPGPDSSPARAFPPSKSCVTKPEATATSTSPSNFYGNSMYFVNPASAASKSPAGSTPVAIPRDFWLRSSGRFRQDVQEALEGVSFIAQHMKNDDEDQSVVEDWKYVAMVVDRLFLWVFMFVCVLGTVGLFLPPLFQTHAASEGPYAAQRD
T2 sequence (P32297 whole entry): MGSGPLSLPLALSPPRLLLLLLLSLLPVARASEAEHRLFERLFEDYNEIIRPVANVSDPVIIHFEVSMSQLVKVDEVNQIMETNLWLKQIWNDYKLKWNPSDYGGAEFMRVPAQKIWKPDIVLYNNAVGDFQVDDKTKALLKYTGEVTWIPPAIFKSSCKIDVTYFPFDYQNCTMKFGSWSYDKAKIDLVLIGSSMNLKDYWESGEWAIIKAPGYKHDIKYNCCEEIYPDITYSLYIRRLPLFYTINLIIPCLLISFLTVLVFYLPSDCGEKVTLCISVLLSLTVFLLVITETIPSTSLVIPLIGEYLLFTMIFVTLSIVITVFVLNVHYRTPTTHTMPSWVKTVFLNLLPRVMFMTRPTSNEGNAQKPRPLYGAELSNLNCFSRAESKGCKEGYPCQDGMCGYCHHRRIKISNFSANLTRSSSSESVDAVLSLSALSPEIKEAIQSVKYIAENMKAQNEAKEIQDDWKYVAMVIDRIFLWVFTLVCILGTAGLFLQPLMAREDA
The target in series [9] is T3, Neuronal acetylcholine receptor subunit alpha-7 (Homo sapiens, UniProt P36544). As to the kind of experiment: Agonist activity at human recombinant alpha7 nAChR expressed in xenopus oocytes by patch clamp assay relative to acetylcholine. Format: functional, cell-based. The following applies: Oocyte. For orientation: In patch-clamp work, channel activity is measured electrically.
T3 sequence (P36544 whole entry): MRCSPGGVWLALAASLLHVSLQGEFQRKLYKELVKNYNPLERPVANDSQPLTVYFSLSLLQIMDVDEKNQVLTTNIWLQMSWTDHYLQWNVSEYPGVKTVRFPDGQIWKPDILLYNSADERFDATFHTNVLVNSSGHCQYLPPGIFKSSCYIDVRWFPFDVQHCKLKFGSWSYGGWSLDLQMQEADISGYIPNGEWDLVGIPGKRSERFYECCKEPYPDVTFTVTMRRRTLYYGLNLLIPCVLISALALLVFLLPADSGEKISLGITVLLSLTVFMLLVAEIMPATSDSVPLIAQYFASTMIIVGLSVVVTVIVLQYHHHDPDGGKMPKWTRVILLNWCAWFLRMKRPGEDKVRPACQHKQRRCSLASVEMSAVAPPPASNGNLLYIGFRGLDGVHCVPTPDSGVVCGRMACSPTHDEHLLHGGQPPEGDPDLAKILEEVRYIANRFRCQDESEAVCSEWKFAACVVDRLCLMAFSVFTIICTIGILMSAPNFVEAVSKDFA

Series [10] deals with T3, Neuronal acetylcholine receptor subunit alpha-7. As to the kind of experiment: Agonist activity at human recombinant alpha7 nAChR expressed in xenopus oocytes by patch clamp assay. Format: functional, cell-based, Oocyte.
The target of series [11] is Neuronal acetylcholine receptor; alpha3/beta2 (Homo sapiens, UniProt P17787+P32297). As to the kind of experiment: Agonist activity at alpha3beta2 nAChR receptor by FLIPR assay. Type of series: functional.
Chain of Neuronal acetylcholine receptor; alpha3/beta2 (P17787 whole entry): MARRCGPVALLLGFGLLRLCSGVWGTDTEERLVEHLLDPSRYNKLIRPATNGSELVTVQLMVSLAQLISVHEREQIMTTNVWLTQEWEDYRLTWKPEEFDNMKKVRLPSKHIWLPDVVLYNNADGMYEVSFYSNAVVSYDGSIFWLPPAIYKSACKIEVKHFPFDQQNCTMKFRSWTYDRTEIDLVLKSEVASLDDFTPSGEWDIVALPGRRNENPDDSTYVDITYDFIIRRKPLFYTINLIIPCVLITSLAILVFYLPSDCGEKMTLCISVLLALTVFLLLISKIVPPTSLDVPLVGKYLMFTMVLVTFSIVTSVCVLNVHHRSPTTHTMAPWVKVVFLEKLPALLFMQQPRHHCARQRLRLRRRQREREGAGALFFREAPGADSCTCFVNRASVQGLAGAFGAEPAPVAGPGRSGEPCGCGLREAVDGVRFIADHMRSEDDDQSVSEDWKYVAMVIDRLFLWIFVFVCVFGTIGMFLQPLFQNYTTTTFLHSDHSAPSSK
Chain of Neuronal acetylcholine receptor; alpha3/beta2 (P32297 whole entry): as the sequence (P32297 whole entry) above
Series [12] has as its target T2, Neuronal acetylcholine receptor; alpha3/beta4. As to the kind of experiment: Agonist activity at alpha3beta4 nAChR receptor by FLIPR assay. Format: functional.
For series [13], the target named is Neuronal acetylcholine receptor; alpha4/beta4 (Homo sapiens, UniProt P30926+P43681). As to the kind of experiment: Agonist activity at alpha4beta4 nAChR receptor by FLIPR assay. Format: functional.
Chain of Neuronal acetylcholine receptor; alpha4/beta4 (P30926 whole entry): as the sequence (P30926 whole entry) above
Chain of Neuronal acetylcholine receptor; alpha4/beta4 (P43681 whole entry): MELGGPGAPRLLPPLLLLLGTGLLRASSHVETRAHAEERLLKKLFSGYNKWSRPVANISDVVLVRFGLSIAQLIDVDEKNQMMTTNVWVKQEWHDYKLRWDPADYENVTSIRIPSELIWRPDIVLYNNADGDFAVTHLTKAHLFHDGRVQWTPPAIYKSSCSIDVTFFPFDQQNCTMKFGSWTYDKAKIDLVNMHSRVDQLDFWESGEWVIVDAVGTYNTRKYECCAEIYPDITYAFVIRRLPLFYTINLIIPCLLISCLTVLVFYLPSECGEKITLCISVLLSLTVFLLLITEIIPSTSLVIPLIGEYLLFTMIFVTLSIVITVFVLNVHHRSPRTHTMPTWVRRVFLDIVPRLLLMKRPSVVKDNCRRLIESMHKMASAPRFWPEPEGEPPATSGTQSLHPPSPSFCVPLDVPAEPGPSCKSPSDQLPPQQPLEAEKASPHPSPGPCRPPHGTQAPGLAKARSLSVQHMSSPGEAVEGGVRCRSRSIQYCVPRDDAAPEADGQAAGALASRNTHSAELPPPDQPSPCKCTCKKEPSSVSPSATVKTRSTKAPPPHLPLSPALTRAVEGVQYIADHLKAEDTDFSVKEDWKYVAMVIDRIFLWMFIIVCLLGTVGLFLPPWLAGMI
In series [14] the target is Muscarinic acetylcholine receptor. Description: Binding affinity to muscarinic receptor in rat brain. Format: tissue-based.
Series [15] deals with T1, Neuronal acetylcholine receptor; alpha4/beta2. Description: Agonist activity at alpha4beta2 nAChR receptor by FLIPR assay. Format: functional.

Each structure is given as a SMILES string.

T1 sequence (P17787 whole entry): as the sequence (P17787 whole entry) above
T1 sequence (P43681 whole entry): as the sequence (P43681 whole entry) above
Chain of Neuronal acetylcholine receptor subunit alpha-7 (Rattus norvegicus, UniProt Q05941) (Q05941 whole entry): as the sequence (Q05941 whole entry) above
Chain of Voltage-gated inwardly rectifying potassium channel KCNH2 (Q12809 whole entry): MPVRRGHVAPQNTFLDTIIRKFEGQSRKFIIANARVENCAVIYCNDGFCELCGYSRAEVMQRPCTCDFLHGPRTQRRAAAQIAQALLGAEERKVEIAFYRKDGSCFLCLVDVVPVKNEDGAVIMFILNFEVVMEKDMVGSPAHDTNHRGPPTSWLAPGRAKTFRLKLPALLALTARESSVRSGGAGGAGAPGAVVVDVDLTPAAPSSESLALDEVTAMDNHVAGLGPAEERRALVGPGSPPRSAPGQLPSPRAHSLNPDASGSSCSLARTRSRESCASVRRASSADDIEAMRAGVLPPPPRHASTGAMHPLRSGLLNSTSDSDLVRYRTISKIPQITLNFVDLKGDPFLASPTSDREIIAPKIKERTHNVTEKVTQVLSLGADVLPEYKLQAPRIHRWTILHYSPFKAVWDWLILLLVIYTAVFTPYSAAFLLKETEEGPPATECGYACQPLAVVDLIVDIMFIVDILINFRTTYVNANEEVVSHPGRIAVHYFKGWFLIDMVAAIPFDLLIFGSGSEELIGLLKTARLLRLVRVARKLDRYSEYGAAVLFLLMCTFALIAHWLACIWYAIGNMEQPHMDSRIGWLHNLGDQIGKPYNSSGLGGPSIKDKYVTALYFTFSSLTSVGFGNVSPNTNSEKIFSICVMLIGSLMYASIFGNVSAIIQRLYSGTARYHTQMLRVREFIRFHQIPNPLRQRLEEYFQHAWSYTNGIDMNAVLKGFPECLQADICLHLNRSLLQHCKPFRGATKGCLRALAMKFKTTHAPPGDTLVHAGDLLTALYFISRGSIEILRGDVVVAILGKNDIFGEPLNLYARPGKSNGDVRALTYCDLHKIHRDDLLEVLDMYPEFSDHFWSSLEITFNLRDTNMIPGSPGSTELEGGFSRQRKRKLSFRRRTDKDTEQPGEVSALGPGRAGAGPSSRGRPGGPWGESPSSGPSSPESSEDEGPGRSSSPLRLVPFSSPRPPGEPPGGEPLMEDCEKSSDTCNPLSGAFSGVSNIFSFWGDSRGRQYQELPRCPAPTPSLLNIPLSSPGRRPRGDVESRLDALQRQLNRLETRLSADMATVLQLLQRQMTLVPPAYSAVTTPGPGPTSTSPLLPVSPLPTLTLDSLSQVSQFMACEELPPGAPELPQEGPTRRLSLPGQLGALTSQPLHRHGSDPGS

Take `CC(C)N(CCOc1ccc2c(c1)C(=O)c1cc(OCCN(C(C)C)C(C)C)ccc1-2)C(C)C`: the affinity in [1], expressed as Ki, was 1.3 µM.
Still for that read-out and setting: in the case of `NCCOc1ccc2c(c1)C(=O)c1cc(OCCN)ccc1-2` it was 15 µM; in that of `O=C1c2cc(N3CC4CNCC4C3)ccc2-c2ccc(N3CC4CNCC4C3)cc21` (configuration not stated), 0.00031 µM.
Turning to `CN1C[C@H]2CN(c3ccc4c(c3)C(=O)c3ccccc3-4)C[C@H]21`, the Ki (in general, a dissociation constant, usually derived from enzyme kinetics or from competition with a known ligand) in series [1] came to 0.0059 µM. Further, in series [2], the Ratio Ki came to 10.
For the compound `CCN(CC)CCCc1ccc2c(c1)C(=O)c1cc(CCCN(CC)CC)ccc1-2`, the affinity in series [1], expressed as Ki, was 2.9 µM.
Still for that read-out and setting: in the case of `CCN(CC)CCOc1ccc2c3ccc(OCCN(CC)CC)cc3[s+]([O-])c2c1` it was 0.69 µM; in that of `O=C1c2cc(N3C[C@@H]4CN[C@@H]4C3)ccc2-c2ccc(N3C[C@@H]4CN[C@@H]4C3)cc21`, 0.018 µM; in that of `CCNCCOc1ccc2c(c1)C(=O)c1cc(OCCNCC)ccc1-2`, 0.95 µM.
Still for that read-out and setting: for `CCN(CC)CCOc1ccc2c(c1)C(=O)c1cc(OCCOC)ccc1-2` the value was 2 µM; for `O=C1c2cc(O[C@H]3CN4CCC3CC4)ccc2-c2ccc(O[C@H]3CN4CCC3CC4)cc21`, 0.00058 µM.
The compound `CCN(CC)CC#Cc1ccc2c(c1)C(=O)c1cc(C#CCN(CC)CC)ccc1-2` displayed a Ki in series [1] of 0.087 µM.
On the same count and under the same terms, in the case of `CN1CC2CN(c3ccc4c(c3)C(=O)c3cc(N5CC6CN(C)CC6C5)ccc3-4)CC2C1` (configuration not stated) it was 0.0012 µM.
`c1ccc2c(c1)Cc1cc(O[C@@H]3CN4CCC3CC4)ccc1-2` showed a Ki in series [1] of 0.34 µM.
Turning to `CN1C[C@H]2CN(c3ccc4c(c3)S(=O)(=O)c3ccccc3-4)C[C@H]21`, in [1], the Ki was 0.023 µM.
Still for that read-out and setting: for `O=C1c2cc(O[C@@H]3CCNC3)ccc2-c2ccc(O[C@@H]3CCNC3)cc21` the value was 0.071 µM; for `O=c1c2ccccc2oc2ccc(O[C@H]3CN4CCC3CC4)cc12`, 0.0087 µM.
The same measure, in the same setting: in the case of `O=C1c2cc(OCCN3CCCC3)ccc2-c2ccc(OCCN3CCCC3)cc21` it was 0.053 µM; in that of `CCN(CC)CCOc1cccc(C(=O)c2cccc(OCCN(CC)CC)c2)c1`, 68 µM.
For the compound `O=S1(=O)c2ccccc2-c2ccc(N3CCN4CCC3CC4)cc21`, the results for the Ki in series [1], in series [4] and in [5] were 2.3e-05 µM, 0.66 µM and 0.47 µM, respectively. The Kp at 0.5 h in series [3] was found to be 12. Further, the EC50 in series [6], in series [8] and in series [10] was above 100 µM in each case. This compound registered a concentration at 0.5 h in [7] of 8.4 ng/mL. In series [9], the Emax (as a rule, the size of the effect at its maximum, as opposed to the concentration needed) is below 5%.
`CN1CCN(c2ccc3c(c2)C(=O)c2cc(N4CCN(C)CC4)ccc2-3)CC1`: the Ki in [1] is 0.14 µM.
On the same count and under the same terms, in the case of `CN(C)CCOc1ccc2c(c1)C(=O)c1cc(OCCN(C)C)ccc1-2` it was 0.05 µM.
The same measure, in the same setting: for `CCN(CC)CCOc1ccc2c(c1)C(O)c1cc(OCCN(CC)CC)ccc1-2` the value was 0.27 µM; for `CC[N+](C)(CC)CCOc1ccc2c(c1)C(=O)c1cc(OCC[N+](C)(CC)CC)ccc1-2`, 0.015 µM.
Still for that read-out and setting: in the case of `CN1CC[C@@H](Oc2ccc3c(c2)C(=O)c2cc(O[C@@H]4CCN(C)C4)ccc2-3)C1` it was 0.012 µM; in that of `CCN(CC)CCOc1ccc(-c2ccc(OCCN(CC)CC)cc2)cc1`, above 1000 µM.
In series [1], `CN1CCC[C@H]1COc1ccc2c(c1)C(=O)c1cc(OC[C@@H]3CCCN3C)ccc1-2` gave a Ki of 0.012 µM.
On the same count and under the same terms, for `CCN(CC)CCCOc1ccc2c(c1)C(=O)c1cc(OCCCN(CC)CC)ccc1-2` the value was 0.83 µM; for `CCN(CC)CCOc1ccc2c(c1)S(=O)(=O)c1cc(OCCN(CC)CC)ccc1-2`, 0.23 µM.
On to `CN1CCCN(c2ccc3c(c2)C(=O)c2cc(N4CCCN(C)CC4)ccc2-3)CC1`, for which, in series [1], affinity was put at a Ki of 0.0065 µM. The Ratio Ki in [2] turned out to be 10.
Compound `O=S1(=O)c2ccccc2-c2ccc(O[C@@H]3CN4CCC3CC4)cc21` had a Ki in series [1] of 0.028 µM.
The same measure, in the same setting: in the case of `CCN(CC)CCCCOc1ccc2c(c1)C(=O)c1cc(OCCCCN(CC)CC)ccc1-2` it was 2.3 µM; in that of `CCN(CC)CCOc1ccc2ccc(OCCN(CC)CC)cc2c1`, above 1000 µM.
Still for that read-out and setting: for `CCN(CC)CCOc1ccc2c(c1)C(=O)c1ccccc1-2` the value was 1.8 µM; for `O=C1c2ccccc2-c2ccc(O[C@H]3CN4CCC3CC4)cc21`, 0.0032 µM; for `CN1CC[C@@H]1COc1ccc2c(c1)C(=O)c1cc(OC[C@H]3CCN3C)ccc1-2`, 0.0043 µM.
Consider `CCN(CC)CCOc1ccc2c(c1)C(=O)c1cc(OCCN(CC)CC)ccc1-2` [TILORONE], for which the EC50 (in general, the midpoint of the concentration-response curve) in [11] is above 10 µM; in series [12], above 10 µM; in [13], above 10 µM; in series [10] it was 2.5 µM; in [15], above 10 µM. For the same compound, the Ki turned out to be 0.056 µM in series [1] and 0.42 µM in series [14]. The Emax in series [9] was determined as 67%.
Consider `CN1CCC[C@@H]1COc1ccc2c(c1)C(=O)c1cc(OC[C@H]3CCCN3C)ccc1-2`, for which affinity in series [1] was put at a Ki of 0.0076 µM.
For `CN1CC2CN(c3ccc4oc5ccccc5c(=O)c4c3)CC2C1` (configuration not stated), the Ki in [1] was 0.004 µM; in [4] it was 0.1 µM. Further, the Kp at 0.5 h in [3] is 48. Moreover, the values for the EC50 in [6], in series [8] and in series [10] were above 100 µM, above 100 µM and 2.2 µM, respectively. In series [7], the concentration at 0.5 h stood at 12.4 ng/mL. Besides, the Emax in series [9] is 61%.
In [1], `O=C1c2ccccc2-c2ccc(O[C@@H]3CN4CCC3CC4)cc21` registered a Ki of 0.012 µM.
On the same count and under the same terms, in the case of `CN1CCC(Oc2ccc3c(c2)C(=O)c2cc(OC4CCN(C)CC4)ccc2-3)CC1` it was 0.037 µM; in that of `O=c1c2ccccc2oc2ccc(O[C@@H]3CN4CCC3CC4)cc12`, 0.0088 µM; in that of `O=C1c2ccccc2-c2ccc(N3CCN4CCC3CC4)cc21`, 0.00028 µM.
Same read-out and setting: in the case of `CN1C[C@H]2CN(c3ccc4c(c3)C(=O)c3cc(N5C[C@@H]6CN(C)[C@@H]6C5)ccc3-4)C[C@H]21` it was 9.2e-05 µM; in that of `O=C1c2cc(OCCN3CCCCC3)ccc2-c2ccc(OCCN3CCCCC3)cc21`, 4.2 µM; in that of `CN1CC2CN(c3ccc4c(c3)C(=O)c3ccccc3-4)CC2C1` (configuration not stated), 0.063 µM.
Take `c1ccc2c(c1)Cc1cc(O[C@H]3CN4CCC3CC4)ccc1-2`: in series [1], the Ki was 0.11 µM.
Same read-out and setting: for `CCN(CC)CCOc1ccc2oc3ccc(OCCN(CC)CC)cc3c(=O)c2c1` the value was 0.44 µM.
Still for that read-out and setting: in the case of `O=C1c2cc(O[C@@H]3CN4CCC3CC4)ccc2-c2ccc(O[C@@H]3CN4CCC3CC4)cc21` it was 0.0016 µM; in that of `CN1CC2CN(c3ccc4c(c3)C(=O)c3cc(N)ccc3-4)CC2C1` (configuration not stated), 0.00065 µM.
The same measure, in the same setting: for `O=S1(=O)c2ccccc2-c2ccc(O[C@H]3CN4CCC3CC4)cc21` the value was 0.0039 µM.
The compound `CCN(CC)CCOc1ccc2c(c1)sc1cc(OCCN(CC)CC)ccc12` yielded a Ki in series [1] of 1.6 µM.
Same read-out and setting: in the case of `CN1[C@@H]2CC[C@H]1C[C@H](Oc1ccc3c(c1)C(=O)c1cc(O[C@@H]4C[C@H]5CC[C@@H](C4)N5C)ccc1-3)C2` it was 0.09 µM.
`CCN(CC)CCOc1ccc2c(c1)Cc1cc(OCCN(CC)CC)ccc1-2` returned an inhibitory constant (Ki) in [1] of 0.77 µM.

The record behind these values is ChEMBL document CHEMBL1949494, “SAR of α7 nicotinic receptor agonists derived from tilorone: exploration of a novel nicotinic pharmacophore” (Bioorg Med Chem Lett, 2012).
